The record followed here is ChEMBL document CHEMBL4417636, “Small molecule inhibitors of pendrin ion exchange and pharmaceutical compositions” (2017).

Each structure is given as a SMILES string. Calls of active or inactive are those of the source. No cut-off for these calls is given here.

In one assay the target is T1, Pendrin (Homo sapiens) (UniProt O43511).
T1 sequence (whole entry): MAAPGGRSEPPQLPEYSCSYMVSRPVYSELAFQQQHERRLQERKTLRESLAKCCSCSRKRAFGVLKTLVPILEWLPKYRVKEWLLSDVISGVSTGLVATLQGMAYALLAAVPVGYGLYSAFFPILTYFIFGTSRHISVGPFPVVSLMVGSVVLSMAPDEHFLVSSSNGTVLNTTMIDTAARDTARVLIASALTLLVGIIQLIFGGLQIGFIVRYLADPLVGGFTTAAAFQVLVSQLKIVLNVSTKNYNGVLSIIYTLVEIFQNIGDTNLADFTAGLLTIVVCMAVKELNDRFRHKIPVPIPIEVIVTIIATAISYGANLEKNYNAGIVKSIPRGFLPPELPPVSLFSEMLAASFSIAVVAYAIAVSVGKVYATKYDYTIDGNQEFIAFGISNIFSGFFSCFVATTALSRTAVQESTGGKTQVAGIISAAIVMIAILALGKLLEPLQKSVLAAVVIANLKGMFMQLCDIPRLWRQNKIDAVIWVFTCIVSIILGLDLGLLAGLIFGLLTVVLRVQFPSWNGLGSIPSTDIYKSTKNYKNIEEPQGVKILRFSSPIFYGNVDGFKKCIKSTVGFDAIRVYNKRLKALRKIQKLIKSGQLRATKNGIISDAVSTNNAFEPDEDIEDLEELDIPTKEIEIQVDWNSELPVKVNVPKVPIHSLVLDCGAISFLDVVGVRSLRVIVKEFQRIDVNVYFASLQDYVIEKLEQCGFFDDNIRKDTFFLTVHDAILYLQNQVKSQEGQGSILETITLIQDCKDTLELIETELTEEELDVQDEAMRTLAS
Kind of assay: Inhibition of pendrin in IL13-stimulated human CFBE assessed as reduction in gluconate gradient-induced intracellular alkalization at 25 uM. In kind it is cell-based.

The target in assay [1] is Cystic fibrosis transmembrane conductance regulator (Homo sapiens) (UniProt P13569). Kind of assay: Inhibition of CFTR in human bronchial epithelial cells assessed as effect on short-circuit current at 25 uM pre-incubated for 30 mins.
The species entered for assay [2] is Homo sapiens. Put plainly: Effect on gluconate gradient-induced Cl(-) efflux in NHBE cells at 25 uM. The class given is functional, cell-based.
The species entered for assay [3] is Homo sapiens. Kind of assay: Effect on airway surface liquid depth in human CFBE at 25 uM by rhodamine B-dextran fluorescence based confocal microscopy. The class given is functional.
Assay [4] has as its target T2, Solute carrier family 12 member 2 (Homo sapiens) (UniProt P55011).
T2 sequence (whole entry): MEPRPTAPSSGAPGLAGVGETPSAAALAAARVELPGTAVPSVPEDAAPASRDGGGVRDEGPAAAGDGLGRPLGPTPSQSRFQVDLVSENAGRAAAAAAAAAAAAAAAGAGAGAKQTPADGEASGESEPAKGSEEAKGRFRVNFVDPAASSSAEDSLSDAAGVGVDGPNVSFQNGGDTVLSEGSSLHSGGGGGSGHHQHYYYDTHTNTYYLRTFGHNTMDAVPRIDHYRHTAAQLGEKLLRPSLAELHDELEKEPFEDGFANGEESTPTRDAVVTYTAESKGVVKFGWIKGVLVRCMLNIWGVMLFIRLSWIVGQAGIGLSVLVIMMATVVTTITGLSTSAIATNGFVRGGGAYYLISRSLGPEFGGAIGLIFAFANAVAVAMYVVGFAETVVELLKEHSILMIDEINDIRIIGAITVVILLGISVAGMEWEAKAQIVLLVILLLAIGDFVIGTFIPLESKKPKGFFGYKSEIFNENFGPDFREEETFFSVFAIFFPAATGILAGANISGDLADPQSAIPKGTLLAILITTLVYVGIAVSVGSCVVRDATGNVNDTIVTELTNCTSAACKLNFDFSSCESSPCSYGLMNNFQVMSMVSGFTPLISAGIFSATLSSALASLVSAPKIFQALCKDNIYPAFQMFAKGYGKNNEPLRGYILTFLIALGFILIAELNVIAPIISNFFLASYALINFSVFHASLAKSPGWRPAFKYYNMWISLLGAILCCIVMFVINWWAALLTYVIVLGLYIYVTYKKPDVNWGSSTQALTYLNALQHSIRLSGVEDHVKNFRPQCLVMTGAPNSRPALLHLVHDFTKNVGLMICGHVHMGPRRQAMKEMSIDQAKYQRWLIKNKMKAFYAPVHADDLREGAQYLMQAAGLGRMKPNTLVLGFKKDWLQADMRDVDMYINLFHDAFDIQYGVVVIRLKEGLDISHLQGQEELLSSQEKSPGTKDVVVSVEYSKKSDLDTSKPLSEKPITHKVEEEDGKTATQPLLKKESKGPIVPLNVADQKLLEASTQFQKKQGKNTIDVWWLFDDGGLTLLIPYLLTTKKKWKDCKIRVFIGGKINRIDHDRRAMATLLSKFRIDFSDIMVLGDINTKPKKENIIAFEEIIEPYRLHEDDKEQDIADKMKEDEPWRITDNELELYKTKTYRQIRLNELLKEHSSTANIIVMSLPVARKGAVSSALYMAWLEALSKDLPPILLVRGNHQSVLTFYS
Put plainly: Inhibition of human NKCC1 expressed in COS7 co-expressing EYFP-HIF assessed as effect on I(-) gradient at 25 uM by YFP-based fluorescence quenching assay.

Assay [5] relates to Mus musculus. Kind of assay: Potentiation of 5 to 50 mg/kg, ip furosemide-induced acute diuretic action in CD1 mouse assessed as increase in urine volume at 50 mg/kg, ip relative to control. The class given is functional, organism-based.
The subject of assay [6] is Mus musculus. Kind of assay: Potentiation of 20 mg/kg, ip furosemide-induced acute diuretic action in CD1 mouse assessed as effect on urinary K+ excretion at 50 mg/kg, ip measured at 3 hrs relative to control. In kind it is functional, organism-based.

Cystic fibrosis transmembrane conductance regulator (Homo sapiens), sequence (P13569 whole entry, looked up): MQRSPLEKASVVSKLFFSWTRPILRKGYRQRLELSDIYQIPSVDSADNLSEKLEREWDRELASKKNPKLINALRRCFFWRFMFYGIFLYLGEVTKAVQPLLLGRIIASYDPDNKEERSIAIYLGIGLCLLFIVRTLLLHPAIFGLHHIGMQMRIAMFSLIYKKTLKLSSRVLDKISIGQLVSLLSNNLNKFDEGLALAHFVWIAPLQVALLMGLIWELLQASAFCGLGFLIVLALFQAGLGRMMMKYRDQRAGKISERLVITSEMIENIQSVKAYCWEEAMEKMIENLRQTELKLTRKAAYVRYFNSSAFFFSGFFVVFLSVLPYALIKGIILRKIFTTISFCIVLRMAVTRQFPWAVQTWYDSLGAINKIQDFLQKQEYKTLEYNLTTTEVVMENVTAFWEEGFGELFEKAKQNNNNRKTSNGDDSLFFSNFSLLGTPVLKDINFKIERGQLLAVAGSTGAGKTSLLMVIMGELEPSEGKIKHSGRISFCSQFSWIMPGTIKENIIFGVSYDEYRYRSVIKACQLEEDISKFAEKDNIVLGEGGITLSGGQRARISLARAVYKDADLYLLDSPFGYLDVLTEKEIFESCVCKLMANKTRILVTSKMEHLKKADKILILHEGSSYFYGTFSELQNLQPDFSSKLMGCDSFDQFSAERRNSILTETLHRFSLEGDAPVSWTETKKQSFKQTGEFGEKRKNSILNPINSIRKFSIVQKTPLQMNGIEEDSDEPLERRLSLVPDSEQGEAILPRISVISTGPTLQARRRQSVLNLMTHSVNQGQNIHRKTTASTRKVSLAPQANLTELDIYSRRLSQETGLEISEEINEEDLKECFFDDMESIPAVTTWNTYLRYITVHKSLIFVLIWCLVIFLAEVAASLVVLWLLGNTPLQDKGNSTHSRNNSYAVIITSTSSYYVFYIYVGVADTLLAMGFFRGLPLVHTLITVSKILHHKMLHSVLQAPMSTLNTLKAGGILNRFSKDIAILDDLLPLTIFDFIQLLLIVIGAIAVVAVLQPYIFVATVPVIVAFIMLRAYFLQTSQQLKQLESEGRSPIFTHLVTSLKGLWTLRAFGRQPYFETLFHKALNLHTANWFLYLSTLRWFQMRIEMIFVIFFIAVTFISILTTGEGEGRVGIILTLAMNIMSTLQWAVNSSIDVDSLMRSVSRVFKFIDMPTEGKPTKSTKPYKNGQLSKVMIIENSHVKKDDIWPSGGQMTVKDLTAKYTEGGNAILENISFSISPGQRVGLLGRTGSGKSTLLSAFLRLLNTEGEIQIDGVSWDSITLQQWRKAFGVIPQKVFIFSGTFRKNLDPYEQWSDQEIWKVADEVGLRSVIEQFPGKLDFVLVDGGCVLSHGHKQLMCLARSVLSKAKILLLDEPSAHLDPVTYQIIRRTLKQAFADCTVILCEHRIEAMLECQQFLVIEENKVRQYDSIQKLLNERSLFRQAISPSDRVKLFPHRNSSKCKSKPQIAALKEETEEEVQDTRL

As for `Cn1nc(COc2cccc(F)c2)c2c1CCN(C(=O)Nc1ccc(Cl)cc1)C2`, the inhibition entry on Pendrin (Homo sapiens) was “Active”. In addition, the inhibition entry in assay [1] is “inactive”. Moreover, the result in the assay filed under Homo sapiens [2] and in the assay filed under Homo sapiens [3] was inactive.
On to `Cc1n[nH]c(-c2cc(S(=O)(=O)NC3CCCc4ccccc43)c(C)s2)c1C` (configuration not stated), for which the inhibition result in assay [4] is “inactive”. The outcome in the assay with Mus musculus [5] was Active. For the same molecule, the outcome in the assay with Mus musculus [6] was inactive.
